Results published in patent publication US20040171566A1, “Antisense modulation of p38 mitogen activated protein kinase expression” (priority 1999, published 2004).
e = 2'-O-(2-methoxyethyl) (MOE); d = 2'-deoxy (DNA)

How the values were obtained:
mouse p38α mRNA = assay: Mouse p38α mRNA levels in bEND.3 cells, quantitative real-time PCR; type: cell-based; design: % Inhib. mouse p38α: concentration or dose not given beside the values; conditions: bEND.3 cells, mRNA by quantitative real-time PCR, average of two experiments
From the text: (§1) Quantitation of p38α mRNA levels was accomplished by real-time quantitative PCR using the ABI PRISM™ 7600, 7700, or 7900 Sequence Detection System (PE-Applied Biosystems, Foster City, Calif.) according to manufacturer's instructions. This is a closed-tube, non-gel-based, fluorescence detection system which allows high-throughput quantitation of polymerase chain reaction (PCR) products in real-time. As opposed to standard PCR in which amplification products are quantitated after the PCR is completed, products in real-time quantitative PCR are quantitated as they accumulate. This is accomplished by including in the PCR reaction an oligonucleotide probe that anneals specifically between the forward and reverse PCR primers, and contains two fluorescent dyes. A reporter dye (e.g., FAM or JOE, obtained from either PE-Applied Biosystems, Foster City, Calif., Operon Technologies Inc., Alameda, Calif. or Integrated DNA Technologies Inc., Coralville, Iowa) is attached to the 5′ end of the probe and a quencher dye (e.g., TAMRA, obtained from either PE-Applied Biosystems, Foster City, Calif., Operon Technologies Inc., Alameda, Calif. or Integrated DNA Technologies Inc., Coralville, Iowa) is attached to the 3′ end of the probe. When the probe and dyes are intact, reporter dye emission is quenched by the proximity of the 3′ quencher dye. During amplification, annealing of the probe to the target sequence creates a substrate that can be cleaved by the 5′-exonuclease activity of Taq polymerase. […] With each cycle, additional reporter dye molecules are cleaved from their respective probes, and the fluorescence intensity is monitored at regular intervals by laser optics built into the ABI PRISM™ Sequence Detection System. In each assay, a series of parallel reactions containing serial dilutions of mRNA from untreated control samples generates a standard curve that is used to quantitate the percent inhibition after antisense oligonucleotide treatment of test samples.
(§2) Prior to quantitative PCR analysis, primer-probe sets specific to the target gene being measured are evaluated for their ability to be “multiplexed” with a GAPDH amplification reaction. In multiplexing, both the target gene and the internal standard gene GAPDH are amplified concurrently in a single sample. In this analysis, mRNA isolated from untreated cells is serially diluted. Each dilution is amplified in the presence of primer-probe sets specific for GAPDH only, target gene only (“single-plexing”), or both (multiplexing). Following PCR amplification, standard curves of GAPDH and target mRNA signal as a function of dilution are generated from both the single-plexed and multiplexed samples. If both the slope and correlation coefficient of the GAPDH and target signals generated from the multiplexed samples fall within 10% of their corresponding values generated from the single-plexed samples, the primer-probe set specific for that target is deemed multiplexable. Other methods of PCR are also known in the art.
(§3) PCR reagents were obtained from Invitrogen Corporation, (Carlsbad, Calif.). […] The RT reaction was carried out by incubation for 30 minutes at 48° C. Following a 10 minute incubation at 95° C. to activate the PLATINUM® Taq, 40 cycles of a two-step PCR protocol were carried out: 95° C. for 15 seconds (denaturation) followed by 60° C. for 1.5 minutes (annealing/extension).
(§4) Gene target quantities obtained by real time RT-PCR are normalized using either the expression level of GAPDH, a gene whose expression is constant, or by quantifying total RNA using RiboGreen™ (Molecular Probes, Inc. Eugene, Oreg.). GAPDH expression is quantified by real time RT-PCR, by being run simultaneously with the target, multiplexing, or separately. Total RNA is quantified using RiboGreen™ RNA quantification reagent (Molecular Probes, Inc. Eugene, Oreg.). Methods of RNA quantification by RiboGreen™ are taught in Jones, L. J., et al, (Analytical Biochemistry, 1998, 265, 368-374). […]

rat p38α mRNA = assay: Rat p38α mRNA levels in NR-8383 cells, quantitative real-time PCR; type: cell-based; conditions: 300 nM oligonucleotide with FuGENE 6, 24 hours, mRNA by quantitative real-time PCR, average of two experiments
From the text: as §1, §2, §3, §4

## 320136 (antisense AGCAGGCAGACTGCCAAGGA; sugars from the 5' end e5 d10 e5, all phosphorothioate, methylation of C not given here) [compound 320136]
Mouse p38α mRNA
  % Inhib. mouse p38α: 83%
Rat p38α mRNA
  % Inhib. rat p38α: 34%

## 320145 (antisense GACCTCTGCACTGAGGTGAA; sugars from the 5' end e5 d10 e5, all phosphorothioate, methylation of C not given here) [compound 320145]
Mouse p38α mRNA
  % Inhib. mouse p38α: 52%
Rat p38α mRNA
  % Inhib. rat p38α: 44%

## 320162 (antisense CGCATTATCTGCTGAAGCTG; sugars from the 5' end e5 d10 e5, all phosphorothioate, methylation of C not given here) [compound 320162]
Mouse p38α mRNA
  % Inhib. mouse p38α: 92%
Rat p38α mRNA
  % Inhib. rat p38α: 62%

## 320157 (antisense CGTCCAACACTGGAATTGGC; sugars from the 5' end e5 d10 e5, all phosphorothioate, methylation of C not given here) [compound 320157]
Mouse p38α mRNA
  % Inhib. mouse p38α: 96%
Rat p38α mRNA
  % Inhib. rat p38α: 71%

## 320164 (antisense CTTGGCATCCTGTTAATGAG; sugars from the 5' end e5 d10 e5, all phosphorothioate, methylation of C not given here) [compound 320164]
Mouse p38α mRNA
  % Inhib. mouse p38α: 80%
Rat p38α mRNA
  % Inhib. rat p38α: 73%

## 320156 (antisense GGAATTGGCTTTACACTTTC; sugars from the 5' end e5 d10 e5, all phosphorothioate, methylation of C not given here) [compound 320156]
Mouse p38α mRNA
  % Inhib. mouse p38α: 91%
Rat p38α mRNA
  % Inhib. rat p38α: 64%

## 320140 (antisense GGGATAGCCTCAGACCTGAA; sugars from the 5' end e5 d10 e5, all phosphorothioate, methylation of C not given here) [compound 320140]
Mouse p38α mRNA
  % Inhib. mouse p38α: 61%
Rat p38α mRNA
  % Inhib. rat p38α: 37%

## 320171 (antisense TGGAAAACTGTTTTGTCAAA; sugars from the 5' end e5 d10 e5, all phosphorothioate, methylation of C not given here) [compound 320171]
Mouse p38α mRNA
  % Inhib. mouse p38α: 35%
Rat p38α mRNA
  % Inhib. rat p38α: 2%

## 320142 (antisense GAGCCAGTTGGTTCTCTTGG; sugars from the 5' end e5 d10 e5, all phosphorothioate, methylation of C not given here) [compound 320142]
Mouse p38α mRNA
  % Inhib. mouse p38α: 85%
Rat p38α mRNA
  % Inhib. rat p38α: 53%

## 320117 (antisense GGAGATTTTCTTCAGAAGCT; sugars from the 5' end e5 d10 e5, all phosphorothioate, methylation of C not given here) [compound 320117]
Mouse p38α mRNA
  % Inhib. mouse p38α: 72%
Rat p38α mRNA
  % Inhib. rat p38α: 55%

## 320158 (antisense CCTTCTGGGCTCCAAATGAT; sugars from the 5' end e5 d10 e5, all phosphorothioate, methylation of C not given here) [compound 320158]
Mouse p38α mRNA
  % Inhib. mouse p38α: 91%
Rat p38α mRNA
  % Inhib. rat p38α: 71%

## 320149 (antisense AAGGAGCTCCTGGCTTCAGG; sugars from the 5' end e5 d10 e5, all phosphorothioate, methylation of C not given here) [compound 320149]
Mouse p38α mRNA
  % Inhib. mouse p38α: 74%
Rat p38α mRNA
  % Inhib. rat p38α: 25%

## 320105 (antisense CCCGTCTTTGTATCAAAAGC; sugars from the 5' end e5 d10 e5, all phosphorothioate, methylation of C not given here) [compound 320105]
Mouse p38α mRNA
  % Inhib. mouse p38α: 89%
Rat p38α mRNA
  % Inhib. rat p38α: 59%

## 320169 (antisense TTTGTTCTCACCTCATGGCT; sugars from the 5' end e5 d10 e5, all phosphorothioate, methylation of C not given here) [compound 320169]
Mouse p38α mRNA
  % Inhib. mouse p38α: 92%
Rat p38α mRNA
  % Inhib. rat p38α: 64%

## 320173 (antisense TCCCACAGGCAGCGGCCGGG; sugars from the 5' end e5 d10 e5, all phosphorothioate, methylation of C not given here) [compound 320173]
Mouse p38α mRNA
  % Inhib. mouse p38α: 160%
Rat p38α mRNA
  % Inhib. rat p38α: 250%

## 320165 (antisense TGCCTCATGGCTTGGCATCC; sugars from the 5' end e5 d10 e5, all phosphorothioate, methylation of C not given here) [compound 320165]
Mouse p38α mRNA
  % Inhib. mouse p38α: 81%
Rat p38α mRNA
  % Inhib. rat p38α: 53%

## 320108 (antisense AGATGGGTCACCAGGTACAC; sugars from the 5' end e5 d10 e5, all phosphorothioate, methylation of C not given here) [compound 320108]
Mouse p38α mRNA
  % Inhib. mouse p38α: 61%
Rat p38α mRNA
  % Inhib. rat p38α: 57%

## 320125 (antisense GCTGCTGTGATCCTCTTATC; sugars from the 5' end e5 d10 e5, all phosphorothioate, methylation of C not given here) [compound 320125]
Mouse p38α mRNA
  % Inhib. mouse p38α: 67%
Rat p38α mRNA
  % Inhib. rat p38α: 63%

## 320110 (antisense TCATCAGTGTGCCGAGCCAG; sugars from the 5' end e5 d10 e5, all phosphorothioate, methylation of C not given here) [compound 320110]
Mouse p38α mRNA
  % Inhib. mouse p38α: 87%
Rat p38α mRNA
  % Inhib. rat p38α: 54%

## 320123 (antisense CAATAAATACATTTGCGAAG; sugars from the 5' end e5 d10 e5, all phosphorothioate, methylation of C not given here) [compound 320123]
Mouse p38α mRNA
  % Inhib. mouse p38α: 79%
Rat p38α mRNA
  % Inhib. rat p38α: 32%

## 320152 (antisense TTTGCCCTTTCTCCCCATCA; sugars from the 5' end e5 d10 e5, all phosphorothioate, methylation of C not given here) [compound 320152]
Mouse p38α mRNA
  % Inhib. mouse p38α: 93%
Rat p38α mRNA
  % Inhib. rat p38α: 66%

## 320126 (antisense AGGCATGCGCAAGAGCTTGG; sugars from the 5' end e5 d10 e5, all phosphorothioate, methylation of C not given here) [compound 320126]
Mouse p38α mRNA
  % Inhib. mouse p38α: 90%
Rat p38α mRNA
  % Inhib. rat p38α: 69%

## 320147 (antisense AGAGCACAGCATGCAAACAC; sugars from the 5' end e5 d10 e5, all phosphorothioate, methylation of C not given here) [compound 320147]
Mouse p38α mRNA
  % Inhib. mouse p38α: 66%
Rat p38α mRNA
  % Inhib. rat p38α: 43%

## 320133 (antisense ACTTGAATGGTATTTGGAGA; sugars from the 5' end e5 d10 e5, all phosphorothioate, methylation of C not given here) [compound 320133]
Mouse p38α mRNA
  % Inhib. mouse p38α: 52%
Rat p38α mRNA
  % Inhib. rat p38α: 61%
